Results reported in publication PMC7031696 (Cell chemical biology, 2019).
Read-outs that look alike come from different tables or passages of the source.

How the values were obtained:
[1] = tested on: Plasmodium falciparum 3D7-A10 parasites; experiment: Stage specificity assay (8-h exposure of synchronized stages, IC50^8h); type: cell-based; details: for IC50: Plasmodium falciparum
[2] = tested on: 3D7-MR4 trophozoite parasite-infected RBCs; experiment: Metabolomic profiling (hydrophilic metabolite changes, UHPLC-MS); type: cell-based, Plasmodium falciparum
[3] = tested on: asynchronous 3D7-A10 parasite cultures; experiment: Standard 72-h exposure asexual blood stage susceptibility assay (IC50^72h); type: cell-based, Plasmodium falciparum; details: Plasmodium falciparum, 3D7, 72 h, read-out: Overall (72hr assay) Mean IC50 (IC50^72h)

Question: For `COc1cc(-c2nc(-c3ccccc3)c(-c3ccccc3)[nH]2)ccc1OCCN(C)C` [MMV027496], which “Ratio lowest IC50 8hr/IC50 72hr” value ([1]; 3D7-A10) is on record?
Answer: 1.9

Question: And the IC50 ([1]; 3D7, read-out: Early rings Mean IC50 (IC50^8h), 8-h exposure 0–8 hr, 3D7-A10, survival at 60 h)?
Answer: 2760 nM

Question: And the IC50 ([1]; 3D7, read-out: Early trophozoites Mean IC50 (IC50^8h), 8-h exposure 16–24 hr, 3D7-A10, survival at 60 h)?
Answer: 168 nM

Question: What about the IC50 ([1]; 3D7, read-out: Late rings Mean IC50 (IC50^8h), 8-h exposure 8–16 hr, 3D7-A10, survival at 60 h) of the same compound?
Answer: 878 nM

Question: What about the IC50 ([1]; 3D7, read-out: Late trophozoites Mean IC50 (IC50^8h), 8-h exposure 24–32 hr, 3D7-A10, survival at 60 h) of the same compound?
Answer: 199 nM

Question: And the IC50 ([1]; 3D7, read-out: Schizonts Mean IC50 (IC50^8h), 8-h exposure 32–40 hr, 3D7-A10, survival at 60 h)?
Answer: 4340 nM

Question: And the “Stage of peak activity (Figure 6)” value ([1]; period when the parasite was most susceptible (lowest IC50^8h))?
Answer: trophozoites

Question: What about the “Peak Activity (Table S1)” value ([1]; stage(s) with the lowest IC50^8h) of the same compound?
Answer: Trophs

Question: And the “Log2(fold changes) 3-phosphoglycerate” value ([2]; metabolite 3-phosphoglycerate, log2 fold change)?
Answer: 0.0073

Question: And the “Log2(fold changes) 4-Pyridoxic acid” value ([2]; metabolite 4-Pyridoxic acid, log2 fold change)?
Answer: -0.0867

Question: And the “Log2(fold changes) 4-aminobutyrate” value ([2]; metabolite 4-aminobutyrate, log2 fold change)?
Answer: -0.1160

Question: What about the “Log2(fold changes) 4-phosphopantetheine” value ([2]; metabolite 4-phosphopantetheine, log2 fold change) of the same compound?
Answer: -1.1166

Question: And the “Log2(fold changes) 4-phosphopantothenate” value ([2]; metabolite 4-phosphopantothenate, log2 fold change)?
Answer: -0.2287

Question: What about the “Log2(fold changes) 5-aminopentanoic acid” value ([2]; metabolite 5-aminopentanoic acid, log2 fold change) of the same compound?
Answer: 0.0000

Question: What about the “Log2(fold changes) 5-methyl-THF” value ([2]; metabolite 5-methyl-THF, log2 fold change) of the same compound?
Answer: 0.0000

Question: What about the “Log2(fold changes) 5-phosphoribosyl-1-pyrophosphate” value ([2]; metabolite 5-phosphoribosyl-1-pyrophosphate, log2 fold change) of the same compound?
Answer: -0.7343

Question: What about the “Log2(fold changes) 6-phospho-D-gluconate” value ([2]; metabolite 6-phospho-D-gluconate, log2 fold change) of the same compound?
Answer: -0.1141

Question: What about the “Log2(fold change) HVDD” value ([2]; metabolite HVDD) of the same compound?
Answer: -2.1597

Question: What about the “Log2(fold change) Hydroxyisocaproic acid” value ([2]; metabolite Hydroxyisocaproic acid) of the same compound?
Answer: 0.0000

Question: And the “Log2(fold change) IDP” value ([2]; metabolite IDP)?
Answer: 0.0000

Question: What about the “Log2(fold change) IMP” value ([2]; metabolite IMP) of the same compound?
Answer: 0.0628

Question: What about the “Log2(fold change) Inositol” value ([2]; metabolite Inositol) of the same compound?
Answer: 0.0000

Question: And the “Log2(fold change) Isopentyl-PP” value ([2]; metabolite Isopentyl-PP)?
Answer: 0.0000

Question: And the “Log2(fold change) L-arginino-succinate” value ([2]; metabolite L-arginino-succinate)?
Answer: 0.8581

Question: What about the “Log2(fold change) LD” value ([2]; metabolite LD) of the same compound?
Answer: -0.0397

Question: And the “Log2(fold change) Myristoyl/tetradecanoyl-CoA” value ([2]; metabolite Myristoyl/tetradecanoyl-CoA)?
Answer: 0.0000

Question: What about the “Log2(fold change) N-Acetyl-L-alanine” value ([2]; metabolite N-Acetyl-L-alanine) of the same compound?
Answer: 0.1987

Question: And the “Log2(fold change) N-acetyl-L-ornithine” value ([2]; metabolite N-acetyl-L-ornithine)?
Answer: 0.0000

Question: And the “Log2(fold change) N-acetyl-glucosamine-1/6-phosphate” value ([2]; metabolite N-acetyl-glucosamine-1/6-phosphate)?
Answer: -0.0707

Question: And the “Log2(fold change) N-acetyl-glutamate” value ([2]; metabolite N-acetyl-glutamate)?
Answer: -0.1403

Question: And the “Log2(fold change) N-acetyl-glutamine” value ([2]; metabolite N-acetyl-glutamine)?
Answer: -1.0773

Question: And the “Log2(fold change) N-carbamoyl-L-aspartate” value ([2]; metabolite N-carbamoyl-L-aspartate)?
Answer: 0.5722

Question: And the “Log2(fold change) NAD+” value ([2]; metabolite NAD+)?
Answer: -0.1059

Question: And the “Log2(fold change) NADH” value ([2]; metabolite NADH)?
Answer: 2.0630

Question: And the “Log2(fold change) NADP+” value ([2]; metabolite NADP+)?
Answer: -0.2030

Question: What about the “Log2(fold change) NADPH” value ([2]; metabolite NADPH) of the same compound?
Answer: 1.8886

Question: And the “Log2(fold change) O-acetyl-L-serine” value ([2]; metabolite O-acetyl-L-serine)?
Answer: 0.0000

Question: And the “Log2(fold change) Octoluse 8/1P” value ([2]; metabolite Octoluse 8/1P)?
Answer: 0.3428

Question: And the “Log2(fold change) Octoluse Bisphosphate” value ([2]; metabolite Octoluse Bisphosphate)?
Answer: 0.2244

Question: And the “Log2(fold change) PD” value ([2]; metabolite PD)?
Answer: -1.0804

Question: What about the “Log2(fold change) PE” value ([2]; metabolite PE) of the same compound?
Answer: -1.1988

Question: What about the “Log2(fold change) PEE” value ([2]; metabolite PEE) of the same compound?
Answer: -0.8148

Question: And the “Log2(fold change) PEEK” value ([2]; metabolite PEEK)?
Answer: 0.0064

Question: What about the “Log2(fold change) PVNF” value ([2]; metabolite PVNF) of the same compound?
Answer: -2.2754

Question: And the “Log2(fold change) Pyroglutamic acid” value ([2]; metabolite Pyroglutamic acid)?
Answer: 0.2204

Question: And the “Log2(fold change) Pyrophosphate” value ([2]; metabolite Pyrophosphate)?
Answer: 0.0000

Question: And the “Log2(fold change) Ribose-5-phosphate” value ([2]; metabolite Ribose-5-phosphate)?
Answer: -0.4834

Question: And the “Log2(fold change) S-adenosyl-L-homocysteine” value ([2]; metabolite S-adenosyl-L-homocysteine)?
Answer: 0.0314

Question: What about the “Log2(fold change) S-adenosyl-L-methioninamine” value ([2]; metabolite S-adenosyl-L-methioninamine) of the same compound?
Answer: 0.0000

Question: And the “Log2(fold change) S-adenosyl-L-methionine” value ([2]; metabolite S-adenosyl-L-methionine)?
Answer: 0.0000

Question: And the “Log2(fold change) S-methyl-5'-thioadenosine” value ([2]; metabolite S-methyl-5'-thioadenosine)?
Answer: -0.0546

Question: And the “Log2(fold change) SD” value ([2]; metabolite SD)?
Answer: -0.8375

Question: And the “Log2(fold change) SDL” value ([2]; metabolite SDL)?
Answer: -2.4484

Question: And the “Log2(fold change) SID” value ([2]; metabolite SID)?
Answer: 0.0000

Question: What about the “Log2(fold change) Sedoheptulose bisphosphate” value ([2]; metabolite Sedoheptulose bisphosphate) of the same compound?
Answer: 0.5967

Question: And the “Log2(fold change) Thiamine pyrophosphate” value ([2]; metabolite Thiamine pyrophosphate)?
Answer: 0.1905

Question: What about the “Log2(fold changes) UDP-D-glucose” value ([2]; metabolite UDP-D-glucose, log2 fold change) of the same compound?
Answer: 0.0680

Question: What about the “Log2(fold changes) UDP-D-glucuronate” value ([2]; metabolite UDP-D-glucuronate, log2 fold change) of the same compound?
Answer: -0.0322

Question: And the “Log2(fold changes) UDP-N-acetyl-glucosamine” value ([2]; metabolite UDP-N-acetyl-glucosamine, log2 fold change)?
Answer: -0.0747

Question: What about the “Log2(fold changes) UDP” value ([2]; metabolite UDP, log2 fold change) of the same compound?
Answer: -0.5781

Question: What about the “Log2(fold changes) UMP” value ([2]; metabolite UMP, log2 fold change) of the same compound?
Answer: 0.0423

Question: And the “Log2(fold changes) UTP” value ([2]; metabolite UTP, log2 fold change)?
Answer: -0.1765

Question: And the “Log2(fold change) hydroxyphenylpyruvate” value ([2]; metabolite hydroxyphenylpyruvate)?
Answer: 0.0000

Question: And the “Log2(fold change) hydroxyproline/Aminolevulinate” value ([2]; metabolite hydroxyproline/Aminolevulinate)?
Answer: -0.0266

Question: What about the “Log2(fold change) hypoxanthine” value ([2]; metabolite hypoxanthine) of the same compound?
Answer: 0.1428

Question: What about the “Log2(fold change) indole” value ([2]; metabolite indole) of the same compound?
Answer: 0.0089

Question: What about the “Log2(fold change) inosine” value ([2]; metabolite inosine) of the same compound?
Answer: -0.2181

Question: What about the “Log2(fold change) isoleucine” value ([2]; metabolite isoleucine) of the same compound?
Answer: 0.0175

Question: What about the “Log2(fold change) lactate” value ([2]; metabolite lactate) of the same compound?
Answer: -0.1982

Question: And the “Log2(fold change) leucine” value ([2]; metabolite leucine)?
Answer: -0.1115

Question: And the “Log2(fold change) lysine” value ([2]; metabolite lysine)?
Answer: 0.0000

Question: And the “Log2(fold change) malate” value ([2]; metabolite malate)?
Answer: -0.3708

Question: What about the “Log2(fold change) maleic acid” value ([2]; metabolite maleic acid) of the same compound?
Answer: -0.2294

Question: And the “Log2(fold change) methionine” value ([2]; metabolite methionine)?
Answer: 0.2631

Question: And the “Log2(fold change) myo-inositol” value ([2]; metabolite myo-inositol)?
Answer: 0.0000

Question: What about the “Log2(fold change) nicotinamide mononucleotide” value ([2]; metabolite nicotinamide mononucleotide) of the same compound?
Answer: 0.0000

Question: And the “Log2(fold change) nicotinate” value ([2]; metabolite nicotinate)?
Answer: 0.0117

Question: And the “Log2(fold change) ornithine” value ([2]; metabolite ornithine)?
Answer: 0.0000

Question: And the “Log2(fold change) orotate” value ([2]; metabolite orotate)?
Answer: 1.3653

Question: And the “Log2(fold change) orotidine-5'-phosphate” value ([2]; metabolite orotidine-5'-phosphate)?
Answer: 0.1863

Question: And the “Log2(fold change) oxaloacetate” value ([2]; metabolite oxaloacetate)?
Answer: 0.0000

Question: And the “Log2(fold change) p-aminobenzoate” value ([2]; metabolite p-aminobenzoate)?
Answer: 0.0000

Question: And the “Log2(fold change) p-hydroxybenzoate” value ([2]; metabolite p-hydroxybenzoate)?
Answer: 0.0000

Question: And the “Log2(fold change) pantothenate” value ([2]; metabolite pantothenate)?
Answer: 0.0065

Question: And the “Log2(fold change) phenylalanine” value ([2]; metabolite phenylalanine)?
Answer: -0.1381

Question: And the “Log2(fold change) phenylpyruvate” value ([2]; metabolite phenylpyruvate)?
Answer: 0.0000

Question: And the “Log2(fold change) phosphoenolpyruvate” value ([2]; metabolite phosphoenolpyruvate)?
Answer: -0.0480

Question: What about the “Log2(fold change) prephenate” value ([2]; metabolite prephenate) of the same compound?
Answer: 0.0000

Question: What about the “Log2(fold change) proline” value ([2]; metabolite proline) of the same compound?
Answer: -0.1946

Question: And the “Log2(fold change) pyridoxine” value ([2]; metabolite pyridoxine)?
Answer: 0.0000

Question: What about the “Log2(fold change) pyruvate” value ([2]; metabolite pyruvate) of the same compound?
Answer: -0.1903

Question: What about the “Log2(fold change) riboflavin” value ([2]; metabolite riboflavin) of the same compound?
Answer: -0.1484

Question: And the “Log2(fold change) ribose” value ([2]; metabolite ribose)?
Answer: 0.0000

Question: What about the “Log2(fold change) ribose-phosphate” value ([2]; metabolite ribose-phosphate) of the same compound?
Answer: 0.0000

Question: And the “Log2(fold change) ribulose-5-phosphate” value ([2]; metabolite ribulose-5-phosphate)?
Answer: -0.2217

Question: What about the “Log2(fold change) serine” value ([2]; metabolite serine) of the same compound?
Answer: 0.1164

Question: What about the “Log2(fold change) sn-glycerol-3-phosphate” value ([2]; metabolite sn-glycerol-3-phosphate) of the same compound?
Answer: 0.2423

Question: What about the “Log2(fold change) succinate/Methylmalonic acid” value ([2]; metabolite succinate/Methylmalonic acid) of the same compound?
Answer: 0.0338

Question: What about the “Log2(fold change) succinyl-CoA/methylmalonyl-CoA” value ([2]; metabolite succinyl-CoA/methylmalonyl-CoA) of the same compound?
Answer: 0.0865

Question: And the “Log2(fold change) taurine” value ([2]; metabolite taurine)?
Answer: 0.0000

Question: And the “Log2(fold change) thiamine” value ([2]; metabolite thiamine)?
Answer: 0.0000

Question: What about the “Log2(fold change) threonine/homoserine” value ([2]; metabolite threonine/homoserine) of the same compound?
Answer: -0.2212

Question: And the “Log2(fold change) thymidine” value ([2]; metabolite thymidine)?
Answer: 0.0000

Question: What about the “Log2(fold changes) thymine” value ([2]; metabolite thymine, log2 fold change) of the same compound?
Answer: 0.0000

Question: What about the “Log2(fold changes) trehalose-6-Phosphate” value ([2]; metabolite trehalose-6-Phosphate, log2 fold change) of the same compound?
Answer: 0.0000

Question: And the “Log2(fold changes) tryptophan” value ([2]; metabolite tryptophan, log2 fold change)?
Answer: -0.0286

Question: And the “Log2(fold changes) tyrosine” value ([2]; metabolite tyrosine, log2 fold change)?
Answer: 0.0383

Question: What about the “Log2(fold changes) uridine” value ([2]; metabolite uridine, log2 fold change) of the same compound?
Answer: 0.0000

Question: And the IC50 [3]?
Answer: 89.7 nM
